Experimental data from US20100249145A1, “Inhibitors of VEGF Receptor and HGF Receptor Signaling” (Methylgene, Inc., priority 2005, published 2010).
Where a name gives a salt, the structure may show the parent alone. Read-outs that look alike come from different tables or passages of the source.

Key:
[1] = target: T1, recombinant human c-Met/HGF receptor (Homo sapiens, UniProt P08581); experiment: In vitro receptor tyrosine kinase assay (DELFIA), c-Met/HGF receptor; assay type: biochemical; conditions: ATP 10 uM, enzyme 25 nM
T1 construct: His tag (histidine tag from pBlueBacHis2A); made in house; host or cells: Hi-5 cells (Trichoplusia ni), recombinant baculovirus
T1 sequence (P08581 1078-1337): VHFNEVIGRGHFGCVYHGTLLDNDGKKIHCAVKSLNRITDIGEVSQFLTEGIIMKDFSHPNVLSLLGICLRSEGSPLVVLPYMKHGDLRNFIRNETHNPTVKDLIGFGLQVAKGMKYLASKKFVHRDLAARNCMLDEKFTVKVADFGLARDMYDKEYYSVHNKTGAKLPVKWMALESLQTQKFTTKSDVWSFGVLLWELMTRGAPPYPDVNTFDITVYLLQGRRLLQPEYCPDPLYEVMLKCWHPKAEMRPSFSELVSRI

TPR-MET fusion protein = TPR-MET fusion protein (Homo sapiens, UniProt P08581); experiment: C-Met phosphorylation cell-based assay (MNNGHOS cells, immunoblot); conditions: Table 30, 3 hours treatment, read-out: C-Met cell-based Y1230-34-35 tpr-met inhibition (IC50)
Chain of TPR-MET fusion protein (P08581 with tags, fused parts or gaps): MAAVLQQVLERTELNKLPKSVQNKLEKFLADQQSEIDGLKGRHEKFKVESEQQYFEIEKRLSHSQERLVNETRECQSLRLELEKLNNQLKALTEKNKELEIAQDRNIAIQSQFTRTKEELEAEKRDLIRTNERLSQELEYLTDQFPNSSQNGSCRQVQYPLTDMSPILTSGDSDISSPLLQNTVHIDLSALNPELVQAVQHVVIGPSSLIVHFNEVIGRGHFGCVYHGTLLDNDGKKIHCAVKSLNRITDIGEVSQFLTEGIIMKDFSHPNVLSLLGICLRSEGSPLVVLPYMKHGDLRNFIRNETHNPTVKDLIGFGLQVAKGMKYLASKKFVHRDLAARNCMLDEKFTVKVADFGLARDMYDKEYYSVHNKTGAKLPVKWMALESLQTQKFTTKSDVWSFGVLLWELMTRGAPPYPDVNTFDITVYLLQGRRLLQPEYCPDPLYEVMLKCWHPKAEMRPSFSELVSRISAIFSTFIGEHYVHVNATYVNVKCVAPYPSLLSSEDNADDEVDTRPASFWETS
Description: C-Met Phosphorylation Cell-Based Assay

VEGF receptor KDR = target: T2, VEGF receptor KDR (Homo sapiens, UniProt P35968); experiment: In vitro receptor tyrosine kinase assay (DELFIA), VEGF receptor KDR; assay type: biochemical; conditions: ATP 0.6 uM, enzyme 5 nM
T2 construct: made in house; host or cells: Sf9 cells (Spodoptera frugiperda), recombinant baculovirus
T2 sequence (P35968 806-1356): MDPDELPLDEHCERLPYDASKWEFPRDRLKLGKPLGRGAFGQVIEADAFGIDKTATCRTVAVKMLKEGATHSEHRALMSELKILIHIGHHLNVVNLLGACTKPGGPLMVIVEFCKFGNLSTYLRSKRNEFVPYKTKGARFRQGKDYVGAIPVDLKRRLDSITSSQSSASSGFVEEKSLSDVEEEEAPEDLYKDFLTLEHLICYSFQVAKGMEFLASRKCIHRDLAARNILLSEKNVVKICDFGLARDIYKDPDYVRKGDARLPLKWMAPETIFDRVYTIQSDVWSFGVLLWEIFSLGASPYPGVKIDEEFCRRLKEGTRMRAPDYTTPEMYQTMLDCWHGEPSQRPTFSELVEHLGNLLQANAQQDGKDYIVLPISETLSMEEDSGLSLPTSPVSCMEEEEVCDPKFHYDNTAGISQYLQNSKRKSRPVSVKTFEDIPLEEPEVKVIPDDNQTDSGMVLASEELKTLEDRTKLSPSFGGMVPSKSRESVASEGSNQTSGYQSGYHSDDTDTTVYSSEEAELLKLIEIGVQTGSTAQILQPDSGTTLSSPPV

A549 [2] = experiment: In vivo solid tumor disease model, A549 xenograft; parameters: species or system female athymic CD 1 mice
U87 cells = experiment: In vivo solid tumor disease model, U87 xenograft; parameters: species or system female athymic CD 1 mice; conditions: U87MG, vehicle 5% DMSO - 1% Tween-80 in water, 14 days
Description: (§1) In Vivo Solid Tumor Disease Model
(§2) This test measures the capacity of compounds to inhibit solid tumor growth.
(§3) Tumor xenografts were established in the flank of female athymic CD 1 mice (Charles River Inc.), by subcutaneous injection of 1×10^6U87, A431 or SKLMS cells/mouse. Once established, tumors were then serially passaged s.c. in nude mice hosts. Tumor fragments from these host animals were used in subsequent compound evaluation experiments. For compound evaluation experiments female nude mice weighing approximately 20 g were implanted s.c. by surgical implantation with tumor fragments of ˜30 mg from donor tumors. When the tumors were approximately 100 mm^3 in size (˜7-10 days following implantation), the animals were randomized a separated into treatment and control groups. Each group contained 6-8 tumor-bearing mice, each of which was ear-tagged and followed individually throughout the experiment
(§4) Mice were weighed and tumor measurements are taken by calipers three times weekly, starting on Day 1. These tumor measurements were converted to tumor volume by the well-known formula (L+W/4)^34/3π. The experiment was terminated when the control tumors reached a size of approximately 1500 mm^3. In this model, the change in mean tumor volume for a compound treated group/the change in mean tumor volume of the control group (non-treated or vehicle treated)×100 (ΔT/ΔC) was subtracted from 100 to give the percent tumor growth inhibition (% TGI) for each test compound. In addition to tumor volumes, body weight of animals were monitored twice weekly for up to 3 weeks.
(§5) Regiment of administration was once daily.

SKLMS cells = experiment: In vivo solid tumor disease model, SKLMS xenograft; parameters: species or system female athymic CD 1 mice; conditions: SKLMS40, 75 mg/kg once daily PO, vehicle 5% DMSO - 1% Tween-80 in water
Description: as §1, §2, §3, §4, §5

DU145 = DU145 scattering inhibition (HGF dependent scattering); assay type: cell-based; conditions: Homo sapiens, DU-145, Table 31, read-out: DU145 scattering inhib IC50
Description: (§6) HGF has well known activity in terms of inducing scattering and migration (wound healing) (Wells et al., Cell Motil Cytoskeleton. 2005 November 62(3):180-94; Miura et al., Urology 2001 December 58(6):1064-9; Nishimura et al., Int J. Urol. 1998 May 5(3):276-81; Wang et al., Mol Cancer Ther. 2003 November; 2(11):1085-92; and Christensen et al., Cancer Res. 2003 Nov. 1; 63(21):7345-55).

A549 [3] = experiment: A549 wound healing inhibition (HGF dependent migration); assay type: cell-based; conditions: Homo sapiens, Table 31, read-out: A549 wound healing inbib IC50
Description: as §6

[4] = Table 30, read-out: C-Met (enz.) (IC50)
[5] = Table 30, read-out: VEGF(enz.) (IC50)

“1-(4-(2- (morpholinylcarbamoyl) thieno[3,2- b]pyridin-7-yloxy)-3- fluorophenyl)-3-(2- phenylacetyl)thiourea [Example 3]” gave an IC50 [1, 4] of 50 to 250 nM, an IC50 (TPR-MET fusion protein) of 50 to 250 nM and an IC50 (VEGF receptor KDR; [5]) of 250 to 500 nM.
Compound “1-(4-(6-(4-N- Methylpiperazylcarbamoyl) thieno[3,2- d]pyrimidin-4-yloxy)- 3-fluorophenyl)-3-(2- phenylacetyl)thiourea [Example 24]” has an IC50 [1, 4] of 50 to 250 nM, an IC50 (TPR-MET fusion protein) greater than 500 nM and an IC50 (VEGF receptor KDR; [5]) of 250 to 500 nM.
`O=C(Cc1ccccc1)NC(=S)Nc1ccc(Oc2ccnc3cc(C(=O)NCCN4CCOCC4)sc23)c(F)c1` [Example 2, l-(4-(2-(2-morpholinoethylcarbamoyl)thieno[3,2-b]pyridin-7-yloxy)-3-fluorophenyl)-3-(2-phenylacetyl)thiourea] showed an IC50 [1, 4] of 50 to 250 nM, an IC50 (TPR-MET fusion protein) of 50 to 250 nM and an IC50 (VEGF receptor KDR; [5]) of less than 50 nM.
Compound `CON(C)C(=O)c1cc2nccc(Oc3ccc(NC(=S)NC(=O)Cc4ccccc4)cc3F)c2s1` [Example 10, 1-(4-(2-(N-methoxy-N-methylcarbamoyl)thieno[3,2-b]pyridin-7-yloxy)-3-fluorophenyl)-3-(2-phenylacetyl)thiourea] has an IC50 [1, 4] of 50 to 250 nM, an IC50 (TPR-MET fusion protein) of 50 to 250 nM and an IC50 (VEGF receptor KDR; [5]) of 50 to 250 nM.
Compound `COC(=O)C(C)N(C(=S)NC(=O)Cc1ccccc1)c1ccc(Oc2ccnc3cc(C(N)=O)sc23)c(F)c1` (stereo not shown) [Example 11, Methyl 2-(1-(4-(2-(carbamoyl)thieno [3,2-b]pyridin-7-yloxy)-3-fluorophenyl)-3-(2-phenylacetyl)thioureido) propanoate] has an IC50 [1, 4] of 50 to 250 nM, an IC50 (TPR-MET fusion protein) of 50 to 250 nM and an IC50 (VEGF receptor KDR; [5]) greater than 500 nM.
Work on `O=C(Cc1ccccc1)NC(=S)Nc1ccc(Oc2ncnc3cc(C(=O)NCCN4CCOCC4)sc23)c(F)c1` [Example 22, 1-(4-(6-(2-Morpholinoethylcarbamoyl)thieno[3,2-d]pyrimidin-4-yloxy)-3-fluorophenyl)-3-(2-phenylacetyl)thiourea] yielded an IC50 [1, 4] of 50 to 250 nM, an IC50 (TPR-MET fusion protein) of less than 50 nM and an IC50 (VEGF receptor KDR; [5]) of 50 to 250 nM.
`CN(C)C(=O)c1cc2ncnc(Oc3ccc(NC(=S)NC(=O)Cc4ccccc4)cc3F)c2s1` [Example 23, 1-(4-(6-(Dimethylcarbamoyl)thieno[3,2-d]pyrimidin-4-yloxy)-3-fluorophenyl)-3-(2-phenylacetyl)thiourea] gave an IC50 [1, 4] of 50 to 250 nM, an IC50 (TPR-MET fusion protein) of 50 to 250 nM and an IC50 (VEGF receptor KDR; [5]) of less than 50 nM.
`CN(Cc1ccco1)C(=O)c1cc2nccc(Oc3ccc(NC(=S)NC(=O)Cc4ccccc4)cc3F)c2s1` [Example 35, 7-[2-Fluoro-4-(3-phenylacetyl-thioureido)-phenoxy]-thieno[3,2-b]pyridine-2-carboxylic acid furan-2-ylmethyl-methyl-amide] gave an IC50 [1, 4] of 50 to 250 nM, an IC50 (TPR-MET fusion protein) of less than 50 nM and an IC50 (VEGF receptor KDR; [5]) of 50 to 250 nM.
In the case of `CC(C)N(CCNC(=O)c1cc2nccc(Oc3ccc(NC(=S)NC(=O)Cc4ccccc4)cc3F)c2s1)C(C)C` [Example 36, 7-[2-Fluoro-4-(3-phenylacetyl-thioureido)-phenoxy]-thieno[3,2-b]pyridine-2-carboxylic acid (2-diisopropylamino-ethyl)-amide, formate salt], the IC50 [1, 4] is reported as 50 to 250 nM, the IC50 (TPR-MET fusion protein) is reported as 50 to 250 nM and the IC50 (VEGF receptor KDR; [5]) is reported as greater than 500 nM.
In the case of `O=C(Cc1ccccc1)NC(=S)Nc1ccc(Oc2ccnc3cc(C(=O)N4CC[C@H](O)C4)sc23)c(F)c1` [Example 39, (S)-N-(3-Fluoro-4-(2-(3-hydroxypyrrolidine-1-carbonyl)thieno[3,2-b]pyridin-7-yloxy)phenylcarbamothioyl)-2-phenylacetamide], the “Tumor Growth Inhibition (%)” value (A549 [2]; 30 mg/kg once daily IP, vehicle DMSO, 14 days) is reported as “b (% TGI in the range of 50-74)”.
`NC(=O)[C@@H]1CCCN1C(=O)c1cc2nccc(Oc3ccc(NC(=S)NC(=O)Cc4ccccc4)cc3F)c2s1` [Example 40, (S)-1-(7-(2-Fluoro-4-(3-(2-phenylacetyl)thioureido)phenoxy)thieno[3,2-b]pyridine-2-carbonyl)pyrrolidine-2-carboxamide] was tested, and the IC50 [1, 4] was 50 to 250 nM, the IC50 (TPR-MET fusion protein) was 50 to 250 nM and the IC50 (VEGF receptor KDR; [5]) was less than 50 nM.
With `O=C(Cc1ccccc1)NC(=S)Nc1ccc(Oc2ccnc3cc(-c4ccc(CN5CCOCC5)cc4)sc23)c(F)c1` [Example 56, 1-(3-Fluoro-4-(2-(4-(morpholinomethyl)phenyl)thieno[3,2-b]pyridin-7-yloxy)phenyl)-3-(2-phenylacetyl)thiourea] the “Tumor Growth Inhibition (%)” value (A549 [2]; 30 mg/kg once daily IP, vehicle DMSO, 12 days) was “c (% TGI in the range of 25-49)”.
With `CCn1ccnc1-c1cc2nccc(Oc3ccc(NC(=S)NC(=O)Cc4ccccc4)cc3F)c2s1` [Example 73, N-(4-(2-(1-Ethyl-1H-imidadzol-2-yl)thieno[3,2-b]pyridin-7-yloxy)-3-fluorophenylcarbamothioyl)-2-phenylacetamide] the “Tumor Growth Inhibition (%)” value (U87 cells; 100 mg/kg once daily PO) was “c (% TGI in the range of 25-49)”.
With `Cn1cc(-c2cc3nccc(Oc4ccc(NC(=S)NC(=O)Cc5ccccc5)cc4F)c3s2)cn1` [Example 81, N-(3-Fluoro-4-(2-(1-methyl-1H-pyrazol-4-yl)thieno[3,2-b]pyridin-7-yloxy)phenylcarbamothioyl)-2-phenylacetamide] the “Tumor Growth Inhibition (%)” value (SKLMS cells; 14 days) was “c (% TGI in the range of 25-49)”.
For `O=C(Cc1ccccc1)NC(=S)Nc1ccc(Oc2ncnc3cc(C(=O)N4CCCC4)sc23)c(F)c1` [Example 142, N-(3-Fluoro-4-(6-(pyrrolidine-1-carbonyl)thieno[3,2-d]pyrimidin-4-yloxy)phenylcarbamothioyl)-2-phenylacetamide], the IC50 [1, 4] was 50 to 250 nM, the IC50 (TPR-MET fusion protein) was less than 50 nM and the IC50 (VEGF receptor KDR; [5]) was less than 50 nM.
For `Cn1cnc(-c2cc3nccc(Oc4ccc(NC(=S)NC(=O)Cc5ccccc5)cc4)c3s2)c1` [Example 201, N-(4-(2-(1-Methyl-1H-imidazol-4-yl)thieno[3,2-b]pyridin-7-yloxy)phenylcarbamothioyl)-2-phenylacetamide], the “Tumor Growth Inhibition (%)” value (A549 [2]; 30 mg/kg once daily IP, vehicle DMSO, 10 days) was “c (% TGI in the range of 25-49)” and the “Tumor Growth Inhibition (%)” value (A549 [2]; 75 mg/kg once daily PO, vehicle 5% DMSO - 1% Tween-80 in water, 10 days) was “c (% TGI in the range of 25-49)”.
Work on `O=C(Cc1ccccc1)NC(=S)Nc1ccc(Oc2ccnc3cc[nH]c23)c(F)c1` [Example 221, N-(4-(1H-Pyrrolo[3,2-b]pyridin-7-yloxy)-3-fluorophenylcarbamothioyl)-2-phenyl acetamide] yielded an IC50 [1, 4] of less than 50 nM, an IC50 (TPR-MET fusion protein) greater than 500 nM and an IC50 (VEGF receptor KDR; [5]) greater than 500 nM.
In the case of `CCn1cnc(-c2cc3nccc(Oc4ccc(NC(=S)NC(=O)Cc5ccccc5OC)cc4F)c3s2)c1` [Example 243, 1-{4-[2-(1-Ethyl-1H-imidazol-4-yl)-thieno[3,2-b]pyridin-7-yloxy]-3-fluoro-phenyl}-3-[2-(2-methoxy-phenyl)-acetyl]-thiourea], the “Tumor Growth Inhibition (%)” value (U87 cells; 75 mg/kg once daily PO) is reported as “b (% TGI in the range of 50-74)” and the “Tumor Growth Inhibition (%)” value (SKLMS cells; 11 days) is reported as “b (% TGI in the range of 50-74)”.
`C#Cc1ccccc1CC(=O)NC(=S)Nc1ccc(Oc2ccnc3cc(-c4cn(CC)cn4)sc23)c(F)c1` [drawing 455] gave an IC50 (DU145) of less than 1000 nM, an IC50 ([1]; Table 31, read-out: CMet ic50) of less than 50 nM and an IC50 (A549 [3]) of less than 1000 nM. For the same compound, the IC50 (VEGF receptor KDR; Table 31, read-out: VEGFR IC50) was less than 50 nM.
For `C#Cc1ccccc1CC(=O)NC(=S)Nc1ccc(Oc2ccnc3cc(-c4cn(CC)cn4)sc23)c(F)c1` [drawing 496], the “Tumor Growth Inhibition (%)” value (A549 [2]; 40 mg/kg once daily p.o., 14 days) was “b (% TGI in the range of 50-74)”.
